In US20150087627A1, “COMBINATION OF KINASE INHIBITORS AND USES THEREOF” (Intellikine LLC, priority 2011, published 2015):
pIC50: −log10 of the molar value. Where two headings read alike, the source gives them in different places.

Experiments:
PI3K γ (p110γ) = biological target: T1, PI3K γ (p110γ) (Homo sapiens, UniProt P48736); assay: PI 3-Kinase (human) HTRF assay, PI3K γ; format: biochemical; conditions: for pIC50: read-out: PI3K γ IC50
T1 construct: purchased Upstate / Millipore Corporation

PI3K β (p110β/p85α) = biological target: T2, PI3K β (p110β/p85α) (Homo sapiens, UniProt P42338); assay: PI 3-Kinase (human) HTRF assay, PI3K β; format: biochemical; conditions: for pIC50: read-out: PI3K β IC50
T2 construct: purchased Upstate / Millipore Corporation
T2 sequence (P42338 whole entry): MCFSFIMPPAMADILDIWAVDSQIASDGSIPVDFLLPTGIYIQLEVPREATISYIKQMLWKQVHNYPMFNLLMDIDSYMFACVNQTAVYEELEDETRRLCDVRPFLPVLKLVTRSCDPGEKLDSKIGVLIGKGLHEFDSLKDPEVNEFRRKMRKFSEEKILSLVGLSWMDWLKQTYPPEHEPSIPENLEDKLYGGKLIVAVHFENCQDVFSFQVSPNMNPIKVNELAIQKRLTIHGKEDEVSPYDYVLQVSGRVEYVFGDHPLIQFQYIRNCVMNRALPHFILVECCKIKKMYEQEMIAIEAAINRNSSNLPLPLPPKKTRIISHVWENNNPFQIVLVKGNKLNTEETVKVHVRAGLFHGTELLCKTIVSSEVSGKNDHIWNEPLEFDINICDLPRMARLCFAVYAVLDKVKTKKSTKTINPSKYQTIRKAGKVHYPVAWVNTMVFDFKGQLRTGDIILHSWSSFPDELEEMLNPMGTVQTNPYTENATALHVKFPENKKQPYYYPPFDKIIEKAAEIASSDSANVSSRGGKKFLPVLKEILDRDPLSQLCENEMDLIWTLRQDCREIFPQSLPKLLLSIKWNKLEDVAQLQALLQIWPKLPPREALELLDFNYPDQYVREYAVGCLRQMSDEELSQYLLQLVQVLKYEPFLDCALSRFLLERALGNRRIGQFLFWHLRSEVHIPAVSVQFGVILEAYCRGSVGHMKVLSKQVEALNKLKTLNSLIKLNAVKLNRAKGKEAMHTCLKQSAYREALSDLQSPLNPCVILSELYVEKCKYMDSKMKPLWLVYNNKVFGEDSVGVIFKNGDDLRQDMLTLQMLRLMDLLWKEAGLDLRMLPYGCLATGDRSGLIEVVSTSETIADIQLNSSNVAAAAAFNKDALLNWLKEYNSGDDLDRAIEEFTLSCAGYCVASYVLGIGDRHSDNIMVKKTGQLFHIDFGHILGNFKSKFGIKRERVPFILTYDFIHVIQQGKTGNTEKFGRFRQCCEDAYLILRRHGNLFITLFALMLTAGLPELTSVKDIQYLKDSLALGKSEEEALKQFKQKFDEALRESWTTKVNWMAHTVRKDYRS
T2 sequence (P27986 whole entry partner): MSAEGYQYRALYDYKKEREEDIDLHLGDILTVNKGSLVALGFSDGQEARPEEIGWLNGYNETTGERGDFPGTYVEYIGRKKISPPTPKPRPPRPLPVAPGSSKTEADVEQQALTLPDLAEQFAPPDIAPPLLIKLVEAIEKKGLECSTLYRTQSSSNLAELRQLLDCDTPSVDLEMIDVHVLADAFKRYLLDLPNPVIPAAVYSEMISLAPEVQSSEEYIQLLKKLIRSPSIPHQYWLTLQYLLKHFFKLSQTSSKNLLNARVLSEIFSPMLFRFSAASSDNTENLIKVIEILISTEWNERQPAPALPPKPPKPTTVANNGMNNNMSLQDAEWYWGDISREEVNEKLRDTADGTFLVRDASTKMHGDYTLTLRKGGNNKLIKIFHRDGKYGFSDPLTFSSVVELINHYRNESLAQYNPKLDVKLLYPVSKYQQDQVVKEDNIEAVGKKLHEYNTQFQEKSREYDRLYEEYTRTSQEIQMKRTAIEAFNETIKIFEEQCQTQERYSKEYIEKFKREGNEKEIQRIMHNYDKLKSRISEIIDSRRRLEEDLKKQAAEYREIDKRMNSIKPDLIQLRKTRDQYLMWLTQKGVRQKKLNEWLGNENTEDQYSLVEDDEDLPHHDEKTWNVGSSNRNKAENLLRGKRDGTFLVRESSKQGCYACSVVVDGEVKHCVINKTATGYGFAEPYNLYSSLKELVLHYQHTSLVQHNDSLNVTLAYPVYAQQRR

PI3K α (p110α/p85α) = biological target: T3, PI3K α (p110α/p85α) (Homo sapiens, UniProt P42336); assay: PI 3-Kinase (human) HTRF assay, PI3K α; format: biochemical
T3 construct: purchased Upstate / Millipore Corporation
T3 sequence (P42336 whole entry): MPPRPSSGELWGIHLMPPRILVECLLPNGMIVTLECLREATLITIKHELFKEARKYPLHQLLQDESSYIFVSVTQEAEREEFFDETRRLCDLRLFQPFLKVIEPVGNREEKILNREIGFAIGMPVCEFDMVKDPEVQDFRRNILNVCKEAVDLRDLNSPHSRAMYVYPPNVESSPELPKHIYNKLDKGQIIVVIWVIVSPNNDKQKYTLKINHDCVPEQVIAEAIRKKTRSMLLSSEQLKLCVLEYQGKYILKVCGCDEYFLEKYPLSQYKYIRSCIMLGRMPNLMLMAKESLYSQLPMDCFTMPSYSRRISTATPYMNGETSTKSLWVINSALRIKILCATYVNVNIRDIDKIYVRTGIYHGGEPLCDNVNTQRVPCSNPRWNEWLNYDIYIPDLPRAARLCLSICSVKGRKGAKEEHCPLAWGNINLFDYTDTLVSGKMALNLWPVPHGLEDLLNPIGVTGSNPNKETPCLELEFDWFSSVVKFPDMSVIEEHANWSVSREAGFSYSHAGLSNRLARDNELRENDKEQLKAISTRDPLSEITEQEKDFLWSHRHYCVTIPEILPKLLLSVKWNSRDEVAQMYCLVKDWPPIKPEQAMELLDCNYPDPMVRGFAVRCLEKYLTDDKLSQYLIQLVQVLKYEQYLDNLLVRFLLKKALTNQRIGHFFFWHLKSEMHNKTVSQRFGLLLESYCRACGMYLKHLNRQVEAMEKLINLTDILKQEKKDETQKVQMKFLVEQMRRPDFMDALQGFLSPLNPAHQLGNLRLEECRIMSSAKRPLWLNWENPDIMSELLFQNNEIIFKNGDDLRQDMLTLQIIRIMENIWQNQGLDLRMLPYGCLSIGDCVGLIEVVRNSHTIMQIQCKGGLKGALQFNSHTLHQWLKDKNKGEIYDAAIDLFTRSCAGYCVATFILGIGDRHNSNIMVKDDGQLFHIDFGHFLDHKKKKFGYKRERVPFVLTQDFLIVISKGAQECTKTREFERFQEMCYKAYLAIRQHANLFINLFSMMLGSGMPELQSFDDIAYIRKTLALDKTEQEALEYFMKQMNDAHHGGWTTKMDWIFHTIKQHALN
T3 sequence (P27986 whole entry partner): as the sequence (P27986 whole entry partner) above

T47D = T47D proliferation; format: cell-based; conditions: Homo sapiens; T47D cell line
mTOR = biological target: T4, mTOR (Homo sapiens, UniProt P42345); assay: mTOR kinase inhibition assay (radiometric or LanthaScreen TR-FRET); format: biochemical; conditions: read-out: mTORC IC50
T4 construct: purchased Invitrogen

PC3 = PC3 proliferation; format: cell-based; conditions: Homo sapiens, PC-3; for IC50: PC3 cell line (compounds before 438), read-out: PC3 proliferation (nM)*; for pIC50: Table 2 (mTor inhibitor compounds), PC3, read-out: PC3 proliferation
PI3K δ = biological target: T5, PI3K δ (Homo sapiens, UniProt O00329); assay: PI 3-Kinase (human) HTRF assay, PI3K δ; format: biochemical; conditions: read-out: PI3K δ IC50
T5 construct: purchased Upstate / Millipore Corporation
T5 sequence (O00329 whole entry): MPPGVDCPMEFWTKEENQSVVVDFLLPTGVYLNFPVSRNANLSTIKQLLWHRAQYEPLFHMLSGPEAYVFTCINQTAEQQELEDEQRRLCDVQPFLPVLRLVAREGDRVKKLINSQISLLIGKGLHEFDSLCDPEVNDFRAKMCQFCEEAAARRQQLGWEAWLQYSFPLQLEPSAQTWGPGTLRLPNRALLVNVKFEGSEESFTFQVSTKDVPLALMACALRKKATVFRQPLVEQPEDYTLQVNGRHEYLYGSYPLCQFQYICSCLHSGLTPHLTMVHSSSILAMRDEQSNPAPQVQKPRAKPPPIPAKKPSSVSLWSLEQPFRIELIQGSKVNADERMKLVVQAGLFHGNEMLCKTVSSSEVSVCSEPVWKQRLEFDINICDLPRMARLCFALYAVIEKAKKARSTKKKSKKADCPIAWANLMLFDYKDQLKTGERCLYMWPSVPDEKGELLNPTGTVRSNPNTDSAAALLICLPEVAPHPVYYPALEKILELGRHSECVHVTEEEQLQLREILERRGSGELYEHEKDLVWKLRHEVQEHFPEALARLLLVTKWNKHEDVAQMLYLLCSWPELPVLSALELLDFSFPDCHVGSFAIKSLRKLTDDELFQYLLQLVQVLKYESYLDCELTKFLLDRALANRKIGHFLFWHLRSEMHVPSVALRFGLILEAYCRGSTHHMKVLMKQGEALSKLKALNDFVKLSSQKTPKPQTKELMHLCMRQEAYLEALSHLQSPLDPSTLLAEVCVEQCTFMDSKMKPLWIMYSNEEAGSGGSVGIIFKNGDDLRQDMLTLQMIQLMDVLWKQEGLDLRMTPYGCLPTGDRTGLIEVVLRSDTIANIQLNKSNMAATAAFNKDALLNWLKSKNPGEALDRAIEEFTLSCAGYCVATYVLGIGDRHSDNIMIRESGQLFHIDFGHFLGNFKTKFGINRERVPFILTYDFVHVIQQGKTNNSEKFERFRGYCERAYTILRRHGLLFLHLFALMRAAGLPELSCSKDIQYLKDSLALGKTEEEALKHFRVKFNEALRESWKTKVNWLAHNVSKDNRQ
T5 sequence (P27986 whole entry partner): as the sequence (P27986 whole entry partner) above

MDA-MB-361 = MDA-MB-361 proliferation; format: cell-based
[1] = Table 4 (PI3K α inhibitors), read-out: PI3K α IC50

T1 sequence (P48736 whole entry): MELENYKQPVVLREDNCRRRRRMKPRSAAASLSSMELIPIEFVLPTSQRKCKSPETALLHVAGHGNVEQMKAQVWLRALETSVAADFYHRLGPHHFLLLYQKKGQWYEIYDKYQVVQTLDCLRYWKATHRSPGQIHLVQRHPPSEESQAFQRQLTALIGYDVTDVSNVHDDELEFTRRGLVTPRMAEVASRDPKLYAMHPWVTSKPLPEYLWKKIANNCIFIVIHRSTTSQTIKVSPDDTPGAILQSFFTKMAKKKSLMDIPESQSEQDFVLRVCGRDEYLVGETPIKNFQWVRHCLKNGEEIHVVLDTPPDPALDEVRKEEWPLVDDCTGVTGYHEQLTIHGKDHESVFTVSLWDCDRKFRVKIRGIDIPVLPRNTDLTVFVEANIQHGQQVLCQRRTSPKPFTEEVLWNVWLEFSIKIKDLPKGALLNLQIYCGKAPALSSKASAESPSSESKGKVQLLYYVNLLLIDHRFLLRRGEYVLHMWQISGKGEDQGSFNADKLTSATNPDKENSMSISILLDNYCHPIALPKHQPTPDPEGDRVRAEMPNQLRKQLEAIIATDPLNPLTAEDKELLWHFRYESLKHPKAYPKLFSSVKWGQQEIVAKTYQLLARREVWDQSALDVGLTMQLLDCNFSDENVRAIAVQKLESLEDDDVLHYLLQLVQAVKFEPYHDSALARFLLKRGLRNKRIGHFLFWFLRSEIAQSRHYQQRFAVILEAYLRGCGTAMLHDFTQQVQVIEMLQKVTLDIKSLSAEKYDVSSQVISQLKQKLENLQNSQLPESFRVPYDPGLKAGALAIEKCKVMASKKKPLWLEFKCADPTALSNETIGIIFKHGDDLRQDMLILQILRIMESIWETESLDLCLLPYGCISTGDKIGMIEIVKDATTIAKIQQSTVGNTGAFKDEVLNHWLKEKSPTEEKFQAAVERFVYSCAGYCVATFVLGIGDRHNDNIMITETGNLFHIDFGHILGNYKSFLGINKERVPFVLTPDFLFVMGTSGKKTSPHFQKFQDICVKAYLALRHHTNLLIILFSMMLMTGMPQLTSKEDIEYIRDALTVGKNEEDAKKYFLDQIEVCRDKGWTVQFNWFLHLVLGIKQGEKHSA

## Nc1nc2cc(-c3ccc4ncc(-c5ccncc5)n4n3)ccc2o1 [Compound 10]
PI3K γ (p110γ)
  pIC50: > 7.00
PI3K β (p110β/p85α)
  pIC50: > 6.00
PI3K α (p110α/p85α); read-out: PI3K α IC50
  pIC50: > 7.00
T47D
  pIC50: > 6.00
mTOR
  pIC50: > 6.00
PC3
  IC50: < 1000 nM

## CN1CCC(N(C)c2cnc3ccc(-c4ccc5oc(N)nc5c4)cc3n2)CC1 [Compound 151]
PI3K γ (p110γ); PI3K γ IC50 (nM)
  IC50: < 10000 nM
PI3K β (p110β/p85α); PI3K β IC50 (nM)
  IC50: < 10000 nM
PI3K α (p110α/p85α)
  pIC50: > 7.00
T47D
  pIC50: > 5.00
PI3K δ
  pIC50: > 6.00

## Nc1nc2cc(-c3ccc4ncc(N5CCNC(=O)C5)cc4n3)ccc2o1 [Compound 580]
PI3K γ (p110γ); Table 4 (PI3K α inhibitors)
  pIC50: > 7.00
PI3K β (p110β/p85α); Table 4 (PI3K α inhibitors)
  pIC50: > 6.00
PI3K α (p110α/p85α); [1]
  pIC50: > 7.00
MDA-MB-361; Homo sapiens, MDA-MB-361, Table 4 (PI3K α inhibitors), MDA-MB-361, read-out: MDA-MB-361 proliferation (nM)*
  IC50: < 1000 nM
PI3K δ; Table 4 (PI3K α inhibitors)
  pIC50: > 5.00

## Nc1nc2cc(-c3ccc4ncc(C(=O)N5CCOCC5)n4c3)ccc2o1 [Compound 54]
PI3K β (p110β/p85α)
  pIC50: > 5.00
T47D
  pIC50: > 5.00
mTOR
  pIC50: > 5.00
PI3K δ
  pIC50: > 5.00

## Cn1c(=O)n(-c2ccc(C(C)(C)C#N)cc2)c2c3cc(-c4ccc5oc(N)nc5c4)ccc3ncc21 [Compound 7]
PI3K γ (p110γ)
  pIC50: > 7.00
PI3K β (p110β/p85α)
  pIC50: > 7.00
PI3K α (p110α/p85α); read-out: PI3K α IC50
  pIC50: > 7.00
mTOR
  pIC50: > 7.00
PI3K δ
  pIC50: > 7.00
PC3
  IC50: < 100 nM

## CN1CCN(c2ccc(-c3cnc4ccc(-c5ccc6oc(N)nc6c5)cn34)cn2)CC1 [Compound 42]
PI3K γ (p110γ)
  pIC50: > 6.00
PI3K α (p110α/p85α); read-out: PI3K α IC50
  pIC50: > 7.00
T47D
  pIC50: > 5.00
mTOR
  pIC50: < 5.00
PI3K δ
  pIC50: > 6.00

## Nc1nc2cc(-c3ccc4ncc(OC5CCOCC5)nc4c3)ccc2o1 [Compound 49]
PI3K γ (p110γ)
  pIC50: > 6.00
PI3K α (p110α/p85α); read-out: PI3K α IC50
  pIC50: > 7.00
T47D
  pIC50: > 5.00
mTOR
  pIC50: > 5.00
PI3K δ
  pIC50: > 5.00

## Nc1nc2ccc(-c3ccc4nccc(-c5ccncc5)c4c3)cc2o1 [Compound 4]
PI3K β (p110β/p85α)
  pIC50: > 7.00
PI3K α (p110α/p85α); read-out: PI3K α IC50
  pIC50: > 7.00
mTOR
  pIC50: > 6.00
PI3K δ
  pIC50: > 7.00
PC3
  IC50: < 100 nM

## Nc1nc2cc(-c3ccc4ncn(-c5ccccc5)c4c3)ccc2o1 [Compound 11]
PI3K β (p110β/p85α)
  pIC50: > 5.00
PI3K α (p110α/p85α); read-out: PI3K α IC50
  pIC50: > 7.00
mTOR
  pIC50: < 5.00
PC3
  IC50: > 10000 nM

## Cc1nc2ccc(-c3ccc4oc(N)nc4c3)nn2c1-c1ccncc1 [Compound 56]
PI3K γ (p110γ)
  pIC50: > 7.00
PI3K β (p110β/p85α)
  pIC50: > 6.00
PI3K α (p110α/p85α); read-out: PI3K α IC50
  pIC50: > 7.00
T47D
  pIC50: > 5.00
mTOR
  pIC50: > 6.00
PI3K δ
  pIC50: < 5.00

## Nc1nc2cc(-c3ccc4ncc(N5CCCCC5)nc4c3)ccc2o1 [Compound 175]
PI3K γ (p110γ)
  pIC50: > 5.00
PI3K β (p110β/p85α)
  pIC50: < 5.00
PI3K α (p110α/p85α); read-out: PI3K α IC50
  pIC50: > 7.00
T47D
  pIC50: < 5.00
PI3K δ
  pIC50: < 5.00

## CC(C)n1nc(-c2cc3ccc(C(N)=O)cc3[nH]2)c2c(N)ncnc21 [Compound 25]
PC3
  pIC50: < 6.30

## CN1CC(C(=O)N2CCC(Nc3ncnc4ccc(-c5ccc6oc(N)nc6c5)cc34)CC2)C1 [Compound 138]
PI3K γ (p110γ)
  pIC50: > 6.00
PI3K β (p110β/p85α)
  pIC50: > 6.00
PI3K α (p110α/p85α); read-out: PI3K α IC50
  pIC50: > 7.00
T47D
  pIC50: < 5.00
PI3K δ
  pIC50: > 7.00

## Nc1nc2cc(-c3ccc4ncc(-c5ccncc5)n4c3)ccc2o1 [Compound 6]
PI3K β (p110β/p85α)
  pIC50: > 5.00
PI3K α (p110α/p85α); read-out: PI3K α IC50
  pIC50: > 7.00
T47D
  pIC50: > 6.00
mTOR
  pIC50: > 5.00
PI3K δ
  pIC50: > 6.00
PC3
  IC50: < 10000 nM

## CN1CCN(c2cnc3ccc(-c4ccc5oc(N)nc5c4)cc3n2)CC1 [Compound 65]
PI3K γ (p110γ)
  pIC50: > 6.00
PI3K β (p110β/p85α)
  pIC50: > 7.00
PI3K α (p110α/p85α); read-out: PI3K α IC50
  pIC50: > 7.00
T47D
  pIC50: > 5.00
mTOR
  pIC50: < 5.00
PI3K δ
  pIC50: > 5.00

## CN1CCC(Nc2ncnc3ccc(-c4ccc5oc(N)nc5c4)cc23)CC1 [Compound 35]
PI3K γ (p110γ)
  pIC50: > 7.00
PI3K α (p110α/p85α); read-out: PI3K α IC50
  pIC50: > 7.00
T47D
  pIC50: > 5.00
mTOR
  pIC50: > 5.00
PI3K δ
  pIC50: > 7.00

## Nc1noc2cc(-c3ccc4nccc(-c5ccncc5)c4c3)ccc12 [Compound 16]
PI3K β (p110β/p85α)
  pIC50: > 5.00
PI3K α (p110α/p85α); read-out: PI3K α IC50
  pIC50: > 7.00
T47D
  pIC50: > 6.00
PI3K δ
  pIC50: > 5.00

## Nc1nc2cc(-c3ccc4ncc(N5CCOCC5)nc4c3)ccc2o1 [Compound 64]
PI3K γ (p110γ)
  pIC50: > 7.00
PI3K β (p110β/p85α)
  pIC50: > 6.00
PI3K α (p110α/p85α); read-out: PI3K α IC50
  pIC50: > 7.00
T47D
  pIC50: > 5.00
mTOR
  pIC50: > 5.00
PI3K δ
  pIC50: < 5.00

## COc1ncc(-c2ccc3ncc(C(=O)N4CCOCC4)n3c2)cc1NS(=O)(=O)c1cccnc1 [Compound 462]
PI3K γ (p110γ)
  pIC50: > 7.00
PI3K β (p110β/p85α)
  pIC50: > 7.00
PI3K α (p110α/p85α); read-out: PI3K α IC50
  pIC50: > 7.00
MDA-MB-361; Homo sapiens, MDA-MB-361, Starting with compound 438, proliferation data was obtained using an MDA-MB-361 cell line, read-out: PC3 proliferation (nM)*
  IC50: < 1000 nM
PI3K δ
  pIC50: > 7.00

## CC(=O)Nc1nc2ccc(-c3ccc4nccc(-c5ccncc5)c4c3)cc2s1 [Compound 2]
PI3K γ (p110γ)
  pIC50: > 6.00
PI3K β (p110β/p85α)
  pIC50: < 5.00
PI3K α (p110α/p85α); read-out: PI3K α IC50
  pIC50: > 6.00
mTOR
  pIC50: < 5.00
PI3K δ
  pIC50: < 5.00
PC3
  IC50: < 10000 nM

## Nc1nc2cc(-c3ccc4ncc(C(=O)Nc5cccnc5)n4c3)ccc2o1 [Compound 190]
PI3K γ (p110γ)
  pIC50: > 7.00
PI3K β (p110β/p85α)
  pIC50: < 5.00
PI3K α (p110α/p85α); read-out: PI3K α IC50
  pIC50: > 7.00
T47D
  pIC50: < 5.00
PI3K δ
  pIC50: > 6.00

## C[C@H]1CN(C2CN(c3cnc4ccc(-c5ccc6oc(N)nc6c5)nc4n3)C2)CCN1C [Compound 606]
PI3K γ (p110γ); Table 4 (PI3K α inhibitors)
  pIC50: > 5.00
PI3K β (p110β/p85α); Table 4 (PI3K α inhibitors)
  pIC50: > 5.00
PI3K α (p110α/p85α); [1]
  pIC50: > 7.00
MDA-MB-361; Table 4 (PI3K α inhibitors), MDA-MB-361, read-out: MDA-MB-361 proliferation (nM)*
  IC50: < 1000 nM
mTOR; Table 4 (PI3K α inhibitors)
  pIC50: < 5.00
PI3K δ; Table 4 (PI3K α inhibitors)
  pIC50: > 6.00

## Cc1cn(-c2cnc3ccc(-c4ccc5oc(N)nc5c4)cc3n2)cn1 [Compound 177]
PI3K γ (p110γ)
  pIC50: > 6.00
PI3K β (p110β/p85α)
  pIC50: < 5.00
PI3K α (p110α/p85α); read-out: PI3K α IC50
  pIC50: > 7.00
T47D
  pIC50: < 5.00
PI3K δ
  pIC50: < 5.00

## Cn1cc(-c2cnc3ccc(-c4ccc5oc(N)nc5c4)cn23)cn1 [Compound 41]
PI3K α (p110α/p85α); read-out: PI3K α IC50
  pIC50: > 7.00
T47D
  pIC50: > 5.00
mTOR
  pIC50: > 5.00
PI3K δ
  pIC50: > 6.00

## CC(C)n1nc(-c2cc3ccc(C#N)cc3[nH]2)c2c(N)ncnc21 [Compound 24]
PC3
  pIC50: < 6.30

## Nc1nc2cc(-c3ccc4ncc(-c5ccc6nc(N)oc6c5)n4c3)ccc2o1 [Compound 50]
PI3K γ (p110γ)
  pIC50: > 7.00
PI3K α (p110α/p85α); read-out: PI3K α IC50
  pIC50: > 7.00
T47D
  pIC50: > 5.00
mTOR
  pIC50: < 5.00
PI3K δ
  pIC50: > 5.00

## CN1CCC(n2cnc3ccc(-c4ccc5oc(N)nc5c4)cc3c2=O)CC1 [Compound 36]
PI3K γ (p110γ)
  pIC50: < 5.00
PI3K α (p110α/p85α); read-out: PI3K α IC50
  pIC50: > 7.00
T47D
  pIC50: > 5.00
mTOR
  pIC50: > 5.00
PI3K δ
  pIC50: > 5.00
